Measurements taken from BindingDB's records for doi:10.1021/jm300847w (Amgen, 2012).

Assay: Inhibition of PI3Kdelta in B-cells by proliferation assay

IC50 [nM]	SMILES
0.5	C[C@H](Nc1ncnc2nc[nH]c12)c1cc2cccc(Cl)c2nc1-c1cscn1
2	Cc1cccc2nc(-c3ccccc3Cl)c(Cn3nc(C#N)c4c(N)ncnc43)nc12
